Assay results from patent US12173018B2, “Penicillin-binding protein inhibitors” (priority 2018, dated 2024).
Converted amounts (≈) assume the structure as drawn. Where two headings read alike, the source gives them in different places.

Legend:
E. coli 901C = assay: microbe, parasite or virus in culture; assay type: cell-based; settings: Escherichia coli; hyper-permeable E. coli 901C, broth microdilution; read-out: MIC E. coli 901C
How it was run: (§1)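 CLSI broth microdilution in cation-supplemented Mueller-Hinton broth; 2-fold compound dilutions inoculated at 5×10^5 CFU/mL from a 3-5 h log-phase culture. Plates incubated 16-20 hours at 37° C; MIC read visually as lowest concentration with no growth.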

E. coli D22 = assay: microbe, parasite or virus in culture; assay type: cell-based; settings: Escherichia coli; hyper-permeable E. coli D22, broth microdilution; read-out: MIC E. coli D22
How it was run: as §1

K. pneumoniae SI-117 = assay: microbe, parasite or virus in culture; assay type: cell-based; settings: Klebsiella pneumoniae, SI117, read-out: MIC K. pneumoniae SI-117
How it was run: as §1

E. coli AG100A = assay: microbe, parasite or virus in culture; assay type: cell-based; settings: Escherichia coli, read-out: MIC E. coli AG100A
How it was run: as §1

K. pneumoniae UMM = assay: microbe, parasite or virus in culture; assay type: cell-based; settings: Klebsiella pneumoniae; K. pneumoniae UMM producing SHV-5 and KPC-2; read-out: MIC K. pneumoniae UMM
How it was run: as §1

P. aeruginosa ATCC 35151 = assay: microbe, parasite or virus in culture; assay type: cell-based; settings: Pseudomonas aeruginosa, ATCC35151; hyper-permeable P. aeruginosa ATCC 35151; read-out: MIC P. aeruginosa ATCC 35151
How it was run: as §1

[1] = test system: P. aeruginosa (ΔmexAB-oprM); assay: microbe, parasite or virus in culture; assay type: cell-based; settings: Pseudomonas aeruginosa, read-out: MIC P. aeruginosa ΔmexAB-OprM
How it was run: as §1

A. baumannii ATCC 19606 = assay: Broth microdilution MIC, A. baumannii ATCC 19606; assay type: cell-based; settings: Acinetobacter baumannii
How it was run: as §1

K. pneumoniae 848844 = assay: microbe, parasite or virus in culture; assay type: cell-based, Klebsiella pneumoniae; settings: Klebsiella pneumoniae; K. pneumoniae 848844 producing SHV-11 and KPC-2; read-out: MIC K. pneumoniae 848844
How it was run: as §1

E. coli ATCC 25922 = assay: Broth microdilution MIC, E. coli ATCC 25922; assay type: cell-based; settings: Escherichia coli
How it was run: as §1

P. aeruginosa ATCC 27853 = assay: Broth microdilution MIC, P. aeruginosa ATCC 27853; assay type: cell-based; settings: Pseudomonas aeruginosa
Experimental: To determine the ability of test compounds to potentiate the inhibition of the growth of bacterial strains, classic cell based broth microdilution minimum inhibitory concentration (MIC) assays were employed. MIC assays are performed according to CLSI methods except where otherwise noted (CLSI, 2011 and CLSI, 2009). The reference type strain E. coli ATCC 25922, the wild-type parent strain E. coli AG100, the hyper-permeable E. coli 901C and E. coli D22 and the E. coli AG100A strain lacking the acrAB efflux pump encoding genes were used to determine the ability of the PBP inhibitors to penetrate the outer membrane of gram-negative bacteria and inhibit bacterial growth. […] The P. aeruginosa PAO1, P. aeruginosa ATCC 27853 and A. baumannii ATCC 19606, along with the hyper-permeable P. aeruginosa ATCC 35151 and an engineered efflux pump-compromised strain of P. aeruginosa (ΔmexAB-oprM) were used to determine the ability of PBP inhibitors to penetrate the outer membrane of P. aeruginosa and A. baumannii and assess antibacterial activity against these important gram-negative organisms.
Briefly, cryo-preserved bacterial cultures of challenge strains are streaked for isolation on appropriate agar medium, in this case Mueller Hinton II agar. Following incubation to allow growth of the colonies, plates are sealed with parafilm and stored refrigerated for up to two weeks. For preparation of assay inoculum and to ensure low variability, at least 5 colonies are picked from the agar plates with an inoculating loop and aseptically transferred to a culture tube containing 3 mL of Mueller-Hinton Broth (supplemented with divalent cations to required levels based on Manufacturers' certification). The broth culture is grown for 3-5 hours at 37° C. with shaking at 200 rpm. Meanwhile, 2-fold serial dilutions of test compounds are conducted in a 96 well plate with a final volume of 75 μL per well at 2-fold the final desired concentration. After the dilution plates are set up the growing cultures are then diluted in a cuvette containing MH II broth and the optical density is measured at 600 nm. The Inoculum is diluted such that 75 μL of this culture in Mueller-Hinton Broth results in a starting bacterial concentration of 5×10^5 CFU/mL when added to the dilution plates. The plates are incubated for 16-20 hours at 37° C. The MIC values are read visually as the lowest concentration well with no bacterial growth.

E. coli AG100 = assay: Broth microdilution MIC, E. coli AG100 (wild-type parent); assay type: cell-based; settings: Escherichia coli; wild-type parent E. coli AG100, broth microdilution; read-out: MIC E. coli AG100
How it was run: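 Starting inoculum of 5×10^5 CFU/mL, from colonies grown 3-5 h in Mueller-Hinton broth with divalent cations, added to two-fold compound dilution series.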

E. coli PBP2 = E. coli PBP2 (Escherichia coli (strain K12), UniProt P0AD65); assay: E. coli PBP2 Bocillin-FL fluorescence polarization competition binding assay; settings: fluorescence polarization competition binding with Bocillin-FL; read-out: E. coli K12 PBP2 Potency (EC50)
Chain of E. coli PBP2 (P0AD65 whole entry): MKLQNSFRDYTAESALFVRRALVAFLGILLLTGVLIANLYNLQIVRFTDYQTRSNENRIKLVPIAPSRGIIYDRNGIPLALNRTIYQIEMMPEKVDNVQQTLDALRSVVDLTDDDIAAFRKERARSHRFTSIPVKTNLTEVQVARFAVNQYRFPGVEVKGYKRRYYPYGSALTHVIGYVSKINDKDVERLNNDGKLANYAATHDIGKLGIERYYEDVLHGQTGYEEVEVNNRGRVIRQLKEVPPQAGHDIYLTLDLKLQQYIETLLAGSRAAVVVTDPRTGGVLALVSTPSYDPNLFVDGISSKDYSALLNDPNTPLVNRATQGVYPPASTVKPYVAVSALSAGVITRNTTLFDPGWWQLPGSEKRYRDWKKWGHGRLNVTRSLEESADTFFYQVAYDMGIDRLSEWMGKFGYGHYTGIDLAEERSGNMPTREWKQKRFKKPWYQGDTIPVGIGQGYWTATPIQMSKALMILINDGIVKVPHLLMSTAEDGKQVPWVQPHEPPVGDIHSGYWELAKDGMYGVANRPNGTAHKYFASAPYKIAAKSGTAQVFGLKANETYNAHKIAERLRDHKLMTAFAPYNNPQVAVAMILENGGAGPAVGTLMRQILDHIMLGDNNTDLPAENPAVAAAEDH
From the text: To determine the ability of boronic acid-based test PBP inhibitors to bind Penicillin Binding Proteins (PBPs), Bocillin-FL (fluorescently-labeled penicillin V; ThermoFisher Scientific) was used in a fluorescence polarization (FP) competition binding assay to assess inhibitor binding to PBP2, PBP3 or PBP4 from Escherichia coli. PBPs were cloned and purified as described previously (King, D. T, et al., ACS Infectious Diseases 2015, 1, 175-184). To establish assay conditions for competition binding, an enzyme titration/saturation binding experiment was initially performed. Bocillin-FL was prepared at 0.2 μM in a buffer comprised of 50 mM Hepes (pH 8.0), 300 mM NaCl and 5% (v/v) glycerol. Saturation binding was performed by mixing 40 μl of PBP solutions ranging in concentrations from 0-12 μM with 40 μl of the 0.2 μM Bocillin-FL solution, in individual wells of a black 384-well microplate. FP was measured immediately upon mixing (Excitation, 490 nm; Emission, 520 nm; g-factor, 0.96), using a Cytation3 (BioTek) microplate reader and measured continuously for up to 120 minutes. […] For all PBPs the FP signal approached saturation with 1.5 μM PBP (final concentration). […] Assays (80 μl final volume) were performed with PBPs at a final concentration of 1.5 μM, Bocillin-FL at 0.1 μM and beta-lactam concentrations that ranged from 0-1000 μM. […] Bocillin-FL was added and the FP immediately measured for 60 minutes (90 minutes for PBP2). The beta-lactam potency was reported as the concentration of beta-lactam required to reduce binding of Bocillin-FL by […] (EC50). […] Binding assays for boronic acid PBP inhibitors were performed in an identical fashion.

[2] = test system: engineered strain of Escherichia coli harboring CTX-M15; assay: microbe, parasite or virus in culture; assay type: cell-based; settings: Escherichia coli, read-out: Microbiological Activity (MIC in mg/L), E. coli DH5α/pLBII-CTX-M15, engineered strain producing CTX-M15
E. coli PBP1a = E. coli PBP1a (Escherichia coli (strain K12), UniProt P02918); assay: Radioligand competition binding assay with 14C-labeled boronic acid probe, PBP1a
Chain of E. coli PBP1a (P02918 whole entry): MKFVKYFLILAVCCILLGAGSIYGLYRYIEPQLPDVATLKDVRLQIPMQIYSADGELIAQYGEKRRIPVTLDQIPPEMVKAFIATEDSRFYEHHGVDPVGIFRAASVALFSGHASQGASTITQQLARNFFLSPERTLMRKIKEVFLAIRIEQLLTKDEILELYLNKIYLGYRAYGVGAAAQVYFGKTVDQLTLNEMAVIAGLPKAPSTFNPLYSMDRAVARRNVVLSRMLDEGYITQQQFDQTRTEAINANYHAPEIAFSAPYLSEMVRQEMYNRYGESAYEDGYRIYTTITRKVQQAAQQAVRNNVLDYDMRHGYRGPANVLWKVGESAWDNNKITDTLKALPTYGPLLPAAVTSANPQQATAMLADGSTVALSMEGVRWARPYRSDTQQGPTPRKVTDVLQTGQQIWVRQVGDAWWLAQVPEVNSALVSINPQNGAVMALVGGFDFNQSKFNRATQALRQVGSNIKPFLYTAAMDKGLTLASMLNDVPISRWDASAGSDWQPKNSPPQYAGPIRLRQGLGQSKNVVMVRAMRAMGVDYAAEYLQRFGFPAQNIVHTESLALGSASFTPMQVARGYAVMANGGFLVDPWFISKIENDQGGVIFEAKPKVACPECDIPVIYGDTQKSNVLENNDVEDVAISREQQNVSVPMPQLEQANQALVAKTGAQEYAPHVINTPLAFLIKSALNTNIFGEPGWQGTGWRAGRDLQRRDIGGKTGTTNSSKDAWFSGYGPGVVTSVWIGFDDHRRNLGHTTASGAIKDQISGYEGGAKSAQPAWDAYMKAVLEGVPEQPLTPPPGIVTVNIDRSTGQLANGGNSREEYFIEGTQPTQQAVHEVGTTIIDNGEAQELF
From the text: To determine the ability of boronic acid-based test PBP inhibitors to bind Penicillin Binding Proteins (PBPs), a radio-labelled boronic acid PBP inhibitor
[drawing 751] was used in competition binding assays to determine boronic acid PBP inhibitor binding to PBP1a or PBP1b from Escherichia coli. PBP1a and PBP1b were purified as described previously (Bertsche, U.; et al., J. Biol. Chem. 2005, 280 (45), 38096-38101; Born, P.; et al., J. Biol. Chem. 2006. 281 (37), 26985-26993). To establish assay conditions for competition binding, an enzyme titration/saturation binding experiment was performed. Saturation binding was performed in a buffer comprised of 20 mM Tris (pH 7.5), 500 mM NaCl and 0.1% (v/v) TritonX-100, with PBP1a/PBP1b at a final concentration of 0.1 μM and Compound A at final concentrations ranging from 0-100 μM. Mixtures were incubated for 60 minutes, then applied to Zeba Spin Desalting columns or plates (ThermoFisher Scientific) and centrifuged at 1000-1500×g for 2 minutes. The flow through, containing PBP bound with Compound A, was recovered and 100 μL mixed with 5 mL of UltimaGold liquid scintillation cocktail (Perkin Elmer), and the radioactivity counted using a Beckman Coulter LS 6500 Multipurpose scintillation counter. PBP binding of Compound A approached saturation at 20 μM of ^14C-labeled probe. The competition binding assay was validated using the beta-lactam ampicillin, with Compound A at a final concentration of 20 μM, PBP1a/PBP1b at a final concentration of 0.1 μM. PBP1a/PBP1b was incubated with ampicillin in a 96-well microplate for 60 minutes, then Compound A was added and the mixtures incubated for an additional 60 minutes. The mixtures were then applied to Zeba Spin desalting plates and centrifuged at 1000×g for 2 minutes. The flow through was recovered and 100 μl mixed with 5 ml of UltimaGold liquid scintillation cocktail and the radioactivity counted. […] Binding assays with boronic acid PBP inhibitors were performed in an identical fashion. The potency of boronic acid PBP inhibitors was reported as the EC50 value.

[3] = test system: E. coli DH5α empty pLBII vector control strain; assay: microbe, parasite or virus in culture; assay type: cell-based, Escherichia coli; settings: Escherichia coli, read-out: Microbiological Activity (MIC in mg/L), E. coli DH5α/pLBII
How it was run: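 MIC was the lowest concentration visibly free of growth after 16–20 h at 37 °C, against 5×10^5 CFU/mL of the empty-pLBII DH5α control strain. Twofold compound dilutions were made in cation-adjusted Mueller-Hinton broth.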

E. coli PBP3 = E. coli PBP3 (Escherichia coli (strain K12), UniProt P0AD68); assay: E. coli PBP3 Bocillin-FL fluorescence polarization competition binding assay
Chain of E. coli PBP3 (P0AD68 whole entry): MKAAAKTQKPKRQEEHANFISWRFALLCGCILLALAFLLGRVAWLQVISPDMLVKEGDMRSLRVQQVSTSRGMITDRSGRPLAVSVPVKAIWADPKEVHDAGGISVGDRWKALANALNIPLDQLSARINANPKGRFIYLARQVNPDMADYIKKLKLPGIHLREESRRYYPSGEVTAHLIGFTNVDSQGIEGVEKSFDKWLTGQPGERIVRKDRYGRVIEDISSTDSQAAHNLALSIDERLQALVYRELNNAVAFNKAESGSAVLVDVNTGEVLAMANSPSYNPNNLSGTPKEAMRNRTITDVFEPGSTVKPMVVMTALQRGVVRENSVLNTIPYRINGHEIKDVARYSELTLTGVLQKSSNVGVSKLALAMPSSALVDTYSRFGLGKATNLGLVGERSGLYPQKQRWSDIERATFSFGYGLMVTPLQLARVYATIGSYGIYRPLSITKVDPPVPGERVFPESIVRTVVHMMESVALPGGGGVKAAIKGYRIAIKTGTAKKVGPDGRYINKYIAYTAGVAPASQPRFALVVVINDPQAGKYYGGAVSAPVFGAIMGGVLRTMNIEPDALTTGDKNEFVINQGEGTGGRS
How it was run: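 This was a fluorescence polarization competition with fluorescent penicillin Bocillin-FL (0.1 μM final), read at 490/520 nm for 60 min immediately after its addition. The buffer was Hepes pH 8.0 with 300 mM NaCl and 5% glycerol, containing 1.5 μM PBP and test inhibitor up to 1000 μM. Potency is expressed as EC50 for reducing probe binding.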

[4] = ATCC19606, A. baumannii ATCC 19606, broth microdilution, read-out: MIC A. baumannii ATCC 19606
[5] = ATCC25922, E. coli ATCC 25922, broth microdilution, read-out: MIC E. coli 25922
[6] = ATCC27853, P. aeruginosa ATCC 27853, broth microdilution, read-out: MIC P. aeruginosa ATCC 27853

SMILES | MIC (E. coli 901C) | MIC (E. coli D22) | MIC (K. pneumoniae SI-117) | MIC (E. coli AG100A) | MIC (K. pneumoniae UMM) | MIC (P. aeruginosa ATCC 35151) | MIC [1] | MIC (E. coli AG100) | EC50 (E. coli PBP3) | MIC (A. baumannii ATCC 19606; [4]) | MIC (E. coli ATCC 25922; [5]) | MIC (P. aeruginosa ATCC 27853; [6]) | also measured
C[C@H]1CN(CCN)C(=O)C(=O)N1C(=O)N[C@@H](C(=O)N[C@H]1Cc2ccc(F)c(C(=O)O)c2OB1O)c1ccc(O)c(O)c1Cl [Example 250, (R)-3-((R)-2-((S)-4-(2-aminoethyl)-6-methyl-2,3-dioxopiperazine-1-carboxamido)-2-(2-chloro-3,4-dihydroxyphenyl)acetamido)-7-fluoro-2-hydroxy-3,4-dihydro-2H-benzo[e][1,2]oxaborinine-8-carboxylic acid] | 0.5 to 1 µg/mL | 0.5 to 1 µg/mL | 2 to 4 µg/mL | 0.5 to 1 µg/mL | 0.5 to 1 µg/mL | < 0.25 µg/mL | < 0.25 µg/mL | 0.5 to 1 µg/mL | – | – | – | – | MIC (A. baumannii ATCC 19606; ATCC19606, read-out: MIC A. baumannii ATCC 19606): < 0.25 µg/mL; MIC (K. pneumoniae 848844): 0.5 to 1 µg/mL; MIC (E. coli ATCC 25922; ATCC25922, read-out: MIC E. coli 25922): 2 to 4 µg/mL; MIC (P. aeruginosa ATCC 27853; ATCC27853, read-out: MIC P. aeruginosa ATCC 27853): 0.5 to 1 µg/mL
CCN1CCN(C(=O)NC(C(=O)N[C@H]2Cc3cccc(C(=O)O)c3OB2O)c2ccc(OC)nc2)C(=O)C1=O (stereo partly drawn) [Example 34, (3R)-3-(2-(4-ethyl-2,3-dioxopiperazine-1-carboxamido)-2-(6-methoxypyridin-3-yl)acetamido)-2-hydroxy-3,4-dihydro-2H-benzo[e][1,2]oxaborinine-8-carboxylic acid] | – | – | – | – | – | – | – | – | 30 to 500 µM | – | – | – | EC50 (E. coli PBP2): > 500 µM; MIC [2]: 128 to 256 mg/L (≈ 237 to 475 µM); EC50 (E. coli PBP1a): < 10 µM; MIC [3]: 128 to 256 mg/L (≈ 237 to 475 µM)
CCN1CCN(C(=O)NC(C(=O)N[C@H]2Cc3cccc(C(=O)O)c3OB2O)c2ccc(O)c([N+](=O)[O-])c2)C(=O)C1=O (stereo partly drawn) [Example 247, (3R)-3-(2-(4-ethyl-2,3-dioxopiperazine-1-carboxamido)-2-(4-hydroxy-3-nitrophenyl)acetamido)-2-hydroxy-3,4-dihydro-2H-benzo[e][1,2]oxaborinine-8-carboxylic acid] | < 0.25 µg/mL | 2 to 4 µg/mL | > 128 µg/mL | 2 to 4 µg/mL | > 128 µg/mL | 0.5 to 1 µg/mL | 8 to 16 µg/mL | 32 to 64 µg/mL | – | > 128 µg/mL | 32 to 64 µg/mL | > 128 µg/mL | EC50 (E. coli PBP3; fluorescence polarization competition binding with Bocillin-FL, read-out: E. coli K12 PBP3 Potency): < 30 µM
CCN1CCN(C(=O)NC(C(=O)N[C@H]2Cc3cccc(C(=O)O)c3OB2O)c2ncc(C(N)=O)cc2F)C(=O)C1=O (stereo partly drawn) [Example 246, (3R)-3-(2-(5-carbamoyl-3-fluoropyridin-2-yl)-2-(4-ethyl-2,3-dioxopiperazine-1-carboxamido)acetamido)-2-hydroxy-3,4-dihydro-2H-benzo[e][1,2]oxaborinine-8-carboxylic acid] | 2 to 4 µg/mL | 32 to 64 µg/mL | > 128 µg/mL | 32 to 64 µg/mL | > 128 µg/mL | 2 to 4 µg/mL | 32 to 64 µg/mL | > 128 µg/mL | 30 to 500 µM | > 128 µg/mL | > 128 µg/mL | > 128 µg/mL | –
